From patent US8952024B2, “Herbicidal pyrimidone derivatives” (E I du Pont de Nemours and Company, priority 2009, dated 2015)

What was measured:
Assay type in all cases: in vivo
[1] = system: wheat (Triticum aestivum); test: Test B pre-/postemergence plant response
Summary of the method: (§1)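 Greenhouse herbicide screen. Pre- and postemergence (1- to 4-leaf) spray of compound in solvent/surfactant mixture; loam–sand soil for pre, peat/vermiculite medium for post. Visual control rating 0–100 at 13 to 15 days after treatment.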

[2] = system: giant foxtail (Setaria faberii); test: Test B pre-/postemergence plant response
Summary of the method: as §1

[3] = system: green foxtail (Setaria viridis); test: Test B pre-/postemergence plant response
Summary of the method: as §1

[4] = system: cocklebur (Xanthium strumarium); test: Test B pre-/postemergence plant response; settings: for Cocklebur plant response rating: scale 0 to 100
Summary of the method: as §1

[5] = system: downy bromegrass (Bromus tectorum); test: Test B pre-/postemergence plant response
Summary of the method: as §1

[6] = system: pigweed (Amaranthus retroflexus); test: Test B pre-/postemergence plant response
Summary of the method: as §1

kochia (Kochia scoparia) = test: Test B pre-/postemergence plant response; settings: Postemergence; for Plant response rating, Kochia: scale 0 (no effect) to 100 (complete control); for Kochia plant response rating: 250 g ai/ha, scale 0 to 100
Summary of the method: as §1

[7] = system: goosegrass (Eleusine indica); test: Test B pre-/postemergence plant response
Summary of the method: as §1

[8] = system: morningglory (Ipomoea coccinea); test: Test B pre-/postemergence plant response
Summary of the method: as §1

[9] = system: large crabgrass (Digitaria sanguinalis); test: Test A pre-/postemergence plant response
Summary of the method: (§2)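 Seeds planted in loam soil/sand blend; test chemicals in non-phytotoxic solvent mixture with surfactant applied as directed soil spray preemergence and, concurrently, postemergence to plants 2–10 cm tall at one- to two-leaf stage. Greenhouse ~10 days; visual injury vs untreated controls, 0 (no effect) to 100 (complete control).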

[10] = system: wheat (Triticum aestivum); test: Test A pre-/postemergence plant response
Summary of the method: as §2

[11] = system: velvetleaf (Abutilon theophrasti); test: Test A pre-/postemergence plant response
Summary of the method: as §2

[12] = system: morningglory (Ipomoea spp.); test: Test A pre-/postemergence plant response
Summary of the method: as §2

[13] = 250 g ai/ha, Preemergence, 0 to 100 scale
[14] = Postemergence, 62 g ai/ha, scale 0 (no effect) to 100 (complete control), 13 to 15 days
[15] = Postemergence, 125 g ai/ha, visual rating after 13 to 15 days, scale 0 (no effect) to 100 (complete control)
[16] = Preemergence, 31 g ai/ha, scale 0 to 100 (0 no effect, 100 complete control)
[17] = Preemergence, 125 g ai/ha, 0 to 100 scale
[18] = Postemergence, 31 g ai/ha, scale 0 to 100 (0 no effect, 100 complete control)
[19] = Postemergence, 250 g ai/ha, scale 0 to 100
[20] = Preemergence, 62 g ai/ha, scale 0 to 100, 0 no effect, 100 complete control
[21] = 125 g ai/ha, visual rating after 13 to 15 days
[22] = Postemergence, 125 g ai/ha, visual injury, 0 to 100 scale (0 no effect, 100 complete control), approx. ten days
[23] = Postemergence, 500 g ai/ha, 0 to 100 scale, 0 = no effect, 100 = complete control, approx. ten days
[24] = Preemergence, 125 g ai/ha, 0 to 100 scale, 0 = no effect, 100 = complete control
[25] = Preemergence, 500 g ai/ha, visual injury, 0 to 100 scale (0 no effect, 100 complete control), approx. ten days

## Cc1ccc(-n2c(-c3cccc(Cl)c3)ncc(C(=O)C3=C(O)CCCC3=O)c2=O)cc1 [Compound 39]
[1]; [13]
  Plant response rating, Wheat: 0
[1]; [14]
  Plant response rating, Wheat: 5
[1]; [15]
  Plant response rating, Wheat: 5
[1]; [16]
  Plant response rating, Wheat: 0
[1]; [17]
  Wheat plant response rating: 0
[2]; [13]
  Plant response rating, Foxtail, Giant: 75
[2]; [18]
  Plant response rating, Foxtail, Giant: 75
[2]; [14]
  Plant response rating, Foxtail, Giant: 85
[2]; [15]
  Plant response rating, Foxtail, Giant: 95
[2]; [19]
  Foxtail, Giant plant response rating: 95
[2]; [16]
  Plant response rating, Foxtail, Giant: 0
[2]; [20]
  Plant response rating, Foxtail, Giant: 45
[2]; [17]
  Foxtail, Giant plant response rating: 70
[3]; [13]
  Plant response rating, Foxtail, Green: 100
[3]; [18]
  Plant response rating, Foxtail, Green: 80
[3]; [14]
  Plant response rating, Foxtail, Green: 80
[3]; [15]
  Plant response rating, Foxtail, Green: 90
[3]; [19]
  Foxtail, Green plant response rating: 90
[3]; [17]
  Foxtail, Green plant response rating: 75
[4]; [13]
  Plant response rating, Cocklebur: 45
[4]; [18]
  Plant response rating, Cocklebur: 75
[4]; [14]
  Plant response rating, Cocklebur: 75
[4]; [15]
  Plant response rating, Cocklebur: 95
[4]; Postemergence, 250 g ai/ha
  Cocklebur plant response rating: 98
[4]; [16]
  Plant response rating, Cocklebur: 0
[5]; [13]
  Plant response rating, Bromegrass, Downy: 0
[5]; [18]
  Plant response rating, Bromegrass, Downy: 0
[5]; [14]
  Plant response rating, Bromegrass, Downy: 0
[5]; [15]
  Plant response rating, Bromegrass, Downy: 0
[5]; [19]
  Bromegrass, Downy plant response rating: 0
[5]; [16]
  Plant response rating, Bromegrass, Downy: 0
[5]; [20]
  Plant response rating, Bromegrass, Downy: 0
[5]; [17]
  Bromegrass, Downy plant response rating: 0
[6]; [13]
  Plant response rating, Pigweed: 100
[6]; [14]
  Plant response rating, Pigweed: 100
[6]; [15]
  Plant response rating, Pigweed: 100
[6]; [16]
  Plant response rating, Pigweed: 90
[6]; [17]
  Pigweed plant response rating: 100
Kochia (Kochia scoparia); 62 g ai/ha, 13 to 15 days
  Plant response rating, Kochia: 45
Kochia (Kochia scoparia); [21]
  Plant response rating, Kochia: 60
Kochia (Kochia scoparia)
  Kochia plant response rating: 95
[7]; [13]
  Plant response rating, Goosegrass: 100
[7]; [14]
  Plant response rating, Goosegrass: 55
[7]; [15]
  Plant response rating, Goosegrass: 65
[7]; [19]
  Goosegrass plant response rating: 75
[7]; [16]
  Plant response rating, Goosegrass: 85
[7]; [17]
  Goosegrass plant response rating: 100
[8]; [13]
  Plant response rating, Morningglory: 100
[8]; [14]
  Plant response rating, Morningglory: 75
[8]; [15]
  Plant response rating, Morningglory: 75
[8]; [16]
  Plant response rating, Morningglory: 0
[8]; [20]
  Plant response rating, Morningglory: 0
[8]; [17]
  Morningglory plant response rating: 15
[9]; [22]
  Crabgrass, Large plant response rating: 80
[9]; [23]
  Plant response rating, Crabgrass, Large: 90
[9]; [24]
  Plant response rating, Crabgrass, Large: 60
[9]; [25]
  Plant response rating, Crabgrass, Large: 90
[10]; [22]
  Wheat plant response rating: 0
[10]; [23]
  Plant response rating, Wheat: 0
[10]; [24]
  Plant response rating, Wheat: 0
[10]; [25]
  Plant response rating, Wheat: 0
[11]; [22]
  Velvetleaf plant response rating: 100
[11]; [23]
  Plant response rating, Velvetleaf: 100
[11]; [24]
  Plant response rating, Velvetleaf: 70
[11]; [25]
  Plant response rating, Velvetleaf: 90
[12]; [22]
  Morningglory plant response rating: 80
[12]; [23]
  Plant response rating, Morningglory: 90
[12]; [24]
  Plant response rating, Morningglory: 40
[12]; [25]
  Plant response rating, Morningglory: 60

## Cc1cccc(-n2c(-c3cccc(Cl)c3)ncc(C(=O)C3=C(O)CCCC3=O)c2=O)c1 [Compound 45]
[1]; [13]
  Plant response rating, Wheat: 0
[1]; [14]
  Plant response rating, Wheat: 15
[1]; [15]
  Plant response rating, Wheat: 15
[1]; [16]
  Plant response rating, Wheat: 0
[1]; [17]
  Wheat plant response rating: 0
[2]; [13]
  Plant response rating, Foxtail, Giant: 75
[2]; [18]
  Plant response rating, Foxtail, Giant: 75
[2]; [14]
  Plant response rating, Foxtail, Giant: 90
[2]; [15]
  Plant response rating, Foxtail, Giant: 95
[2]; [19]
  Foxtail, Giant plant response rating: 98
[2]; [16]
  Plant response rating, Foxtail, Giant: 0
[2]; [20]
  Plant response rating, Foxtail, Giant: 0
[2]; [17]
  Foxtail, Giant plant response rating: 45
[3]; [13]
  Plant response rating, Foxtail, Green: 100
[3]; [18]
  Plant response rating, Foxtail, Green: 50
[3]; [14]
  Plant response rating, Foxtail, Green: 80
[3]; [15]
  Plant response rating, Foxtail, Green: 85
[3]; [19]
  Foxtail, Green plant response rating: 95
[3]; [16]
  Plant response rating, Foxtail, Green: 0
[3]; [20]
  Plant response rating, Foxtail, Green: 80
[3]; [17]
  Foxtail, Green plant response rating: 80
[4]; [18]
  Plant response rating, Cocklebur: 10
[4]; [14]
  Plant response rating, Cocklebur: 50
[4]; [15]
  Plant response rating, Cocklebur: 70
[4]; Postemergence, 250 g ai/ha
  Cocklebur plant response rating: 95
[5]; [13]
  Plant response rating, Bromegrass, Downy: 5
[5]; [18]
  Plant response rating, Bromegrass, Downy: 10
[5]; [14]
  Plant response rating, Bromegrass, Downy: 20
[5]; [15]
  Plant response rating, Bromegrass, Downy: 45
[5]; [19]
  Bromegrass, Downy plant response rating: 50
[5]; [16]
  Plant response rating, Bromegrass, Downy: 0
[5]; [20]
  Plant response rating, Bromegrass, Downy: 0
[5]; [17]
  Bromegrass, Downy plant response rating: 0
[6]; [13]
  Plant response rating, Pigweed: 100
[6]; [14]
  Plant response rating, Pigweed: 98
[6]; [15]
  Plant response rating, Pigweed: 100
[6]; [16]
  Plant response rating, Pigweed: 85
[6]; [17]
  Pigweed plant response rating: 100
Kochia (Kochia scoparia); 62 g ai/ha, 13 to 15 days
  Plant response rating, Kochia: 0
Kochia (Kochia scoparia); [21]
  Plant response rating, Kochia: 15
Kochia (Kochia scoparia)
  Kochia plant response rating: 98
[7]; [13]
  Plant response rating, Goosegrass: 100
[7]; [14]
  Plant response rating, Goosegrass: 75
[7]; [15]
  Plant response rating, Goosegrass: 80
[7]; [19]
  Goosegrass plant response rating: 90
[7]; [16]
  Plant response rating, Goosegrass: 80
[7]; [17]
  Goosegrass plant response rating: 100
[8]; [13]
  Plant response rating, Morningglory: 0
[8]; [14]
  Plant response rating, Morningglory: 75
[8]; [15]
  Plant response rating, Morningglory: 80
[8]; [16]
  Plant response rating, Morningglory: 0
[9]; [22]
  Crabgrass, Large plant response rating: 60
[9]; [23]
  Plant response rating, Crabgrass, Large: 90
[9]; [24]
  Plant response rating, Crabgrass, Large: 50
[9]; [25]
  Plant response rating, Crabgrass, Large: 100
[10]; [22]
  Wheat plant response rating: 0
[10]; [23]
  Plant response rating, Wheat: 40
[10]; [24]
  Plant response rating, Wheat: 0
[10]; [25]
  Plant response rating, Wheat: 20
[11]; [22]
  Velvetleaf plant response rating: 100
[11]; [23]
  Plant response rating, Velvetleaf: 100
[11]; [24]
  Plant response rating, Velvetleaf: 60
[11]; [25]
  Plant response rating, Velvetleaf: 100
[12]; [22]
  Morningglory plant response rating: 80
[12]; [23]
  Plant response rating, Morningglory: 100
[12]; [24]
  Plant response rating, Morningglory: 20
[12]; [25]
  Plant response rating, Morningglory: 90
